Data taken from PubChem BioAssay (NCI).
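Protocol summary: plate cells (96-well), add compound at 5 concentrations, incubate 48 h, interpolate endpoints linearly. GI50 is the concentration that inhibits growth by half. Definition used: TGI = concentration required for complete inhibition of growth.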

Key:
Assay in all cases: inhibition of tumour cell growth, NCI panel, 48 h
[1] = test system: HS 578T breast
[2] = test system: SR leukemia
[3] = test system: NCI-H23 lung
[4] = test system: HOP-62 NSCLC
[5] = test system: NCI/ADR-RES ovarian
[6] = test system: NCI-H522 lung
[7] = test system: HCC-2998 colon
[8] = test system: SNB-19 CNS
[9] = test system: SF-295 CNS
[10] = test system: OVCAR-5 ovarian
[11] = test system: ACHN renal
[12] = test system: MOLT-4 leukemia
[13] = test system: CCRF-CEM leukemia
[14] = test system: SK-MEL-2 melanoma
[15] = test system: HOP-92 NSCLC
[16] = test system: SN12C renal
[17] = test system: SK-OV-3 ovarian
[18] = test system: SNB-75 CNS
[19] = test system: SK-MEL-28 melanoma
[20] = test system: MDA-MB-435
[21] = test system: LOX IMVI melanoma
[22] = test system: NCI-H226 lung
[23] = test system: OVCAR-4 ovarian
[24] = test system: EKVX NSCLC
[25] = test system: A498 renal
[26] = test system: MALME-3M melanoma
[27] = test system: DU-145 prostate
[28] = test system: PC-3 prostate
[29] = test system: SF-268 CNS
[30] = test system: M14 melanoma
[31] = test system: SK-MEL-5 melanoma
[32] = test system: MDA-MB-231 breast
[33] = test system: NCI-H460 lung
[34] = test system: HL-60(TB) leukemia
[35] = test system: SW-620 colon
[36] = test system: IGROV1 ovarian
[37] = test system: U251 CNS
[38] = test system: BT-549 breast
[39] = test system: MDA-MB-468 breast
[40] = test system: UACC-257 melanoma
[41] = test system: KM12 colon
[42] = test system: TK-10 renal
[43] = test system: UACC-62 melanoma
[44] = test system: UO-31 renal
[45] = test system: CAKI-1 renal
[46] = test system: SF-539 CNS
[47] = test system: 786-0 renal
[48] = test system: K-562 leukemia
[49] = test system: T-47D breast
[50] = test system: RXF 393 renal
[51] = test system: HCT-15 colon
[52] = test system: MCF7 breast
[53] = test system: COLO 205 colon
[54] = test system: A549 NSCLC
[55] = test system: HCT-116 colon
[56] = test system: OVCAR-8 ovarian
[57] = test system: OVCAR-3 ovarian
[58] = test system: RPMI-8226 leukemia

C=C(C)[C@@H]1CC[C@]2(C)[C@H](CC=C3[C@@H]4CC(C)(C)CC[C@]4(C(=O)N4CCOCC4)CC[C@]32C)[C@@]1(C)CCCN
GI50 [1]: 1400 nM
TGI [1]: 2990 nM
GI50 [2]: 407 nM
TGI [2]: 3090 nM
GI50 [3]: 1310 nM
TGI [3]: 2450 nM
GI50 [4]: 1390 nM
TGI [4]: 2830 nM
GI50 [5]: 1440 nM
TGI [5]: 2770 nM
GI50 [6]: 1340 nM
TGI [6]: 2550 nM
GI50 [7]: 1220 nM
TGI [7]: 2250 nM
GI50 [8]: 2120 nM
TGI [8]: 6820 nM
GI50 [9]: 1300 nM
TGI [9]: 2400 nM
GI50 [10]: 1380 nM
TGI [10]: 2690 nM
GI50 [11]: 1340 nM
TGI [11]: 2400 nM
GI50 [12]: 1730 nM
TGI [12]: 4620 nM
GI50 [13]: 1330 nM
TGI [13]: 3680 nM
GI50 [14]: 1430 nM
TGI [14]: 2960 nM
GI50 [15]: 1250 nM
TGI [15]: 2710 nM
GI50 [16]: 1290 nM
TGI [16]: 2440 nM
GI50 [17]: 7350 nM
TGI [17]: 21300 nM
GI50 [18]: 2000 nM
TGI [18]: 7890 nM
GI50 [19]: 1240 nM
TGI [19]: 2280 nM
GI50 [20]: 1220 nM
TGI [20]: 2310 nM
GI50 [21]: 1250 nM
TGI [21]: 2260 nM
GI50 [22]: 2780 nM
TGI [22]: 16500 nM
GI50 [23]: 1380 nM
TGI [23]: 2690 nM
GI50 [24]: 1370 nM
TGI [24]: 2880 nM
GI50 [25]: 1410 nM
TGI [25]: 3100 nM
GI50 [26]: 1310 nM
TGI [26]: 2380 nM
GI50 [27]: 1500 nM
TGI [27]: 2960 nM
GI50 [28]: 1490 nM
TGI [28]: 3870 nM
GI50 [29]: 1980 nM
TGI [29]: 6220 nM
GI50 [30]: 1430 nM
TGI [30]: 3250 nM
GI50 [31]: 1560 nM
TGI [31]: 3470 nM
GI50 [32]: 1370 nM
TGI [32]: 2430 nM
GI50 [33]: 1190 nM
TGI [33]: 2250 nM
GI50 [34]: 1000 nM
TGI [34]: 3320 nM
GI50 [35]: 1190 nM
TGI [35]: 2270 nM
GI50 [36]: 1560 nM
TGI [36]: 2990 nM
GI50 [37]: 1280 nM
TGI [37]: 2390 nM
GI50 [38]: 9160 nM
TGI [38]: 24000 nM
GI50 [39]: 1200 nM
TGI [39]: 2330 nM
GI50 [40]: 1290 nM
TGI [40]: 2610 nM
GI50 [41]: 1350 nM
TGI [41]: 2600 nM
GI50 [42]: 1640 nM
TGI [42]: 4360 nM
GI50 [43]: 1560 nM
TGI [43]: 3560 nM
GI50 [44]: 1350 nM
TGI [44]: 3200 nM
GI50 [45]: 1230 nM
TGI [45]: 2250 nM
GI50 [46]: 1260 nM
TGI [46]: 2280 nM
GI50 [47]: 1180 nM
TGI [47]: 2340 nM
GI50 [48]: 1960 nM
TGI [48]: 73500 nM
GI50 [49]: 1860 nM
TGI [49]: 4700 nM

C#C[C@]1(O)CC[C@H]2[C@@H]3CC=C4c5sc(-c6ccc(O)c(O)c6)nc5CC[C@]4(C)[C@H]3CC[C@@]21C
GI50 [2]: 659 nM
TGI [2]: > 100000 nM
GI50 [3]: 2760 nM
TGI [3]: > 100000 nM
GI50 [50]: 157 nM
TGI [50]: 658 nM
GI50 [4]: 3910 nM
TGI [4]: > 100000 nM
GI50 [5]: 2810 nM
TGI [5]: > 100000 nM
GI50 [6]: 1690 nM
TGI [6]: 3640 nM
GI50 [7]: 3670 nM
TGI [7]: 14700 nM
GI50 [8]: 2090 nM
TGI [8]: 22100 nM
GI50 [9]: 303 nM
TGI [9]: 1220 nM
GI50 [10]: 3040 nM
TGI [10]: > 100000 nM
GI50 [12]: 435 nM
TGI [12]: > 100000 nM
GI50 [13]: 764 nM
TGI [13]: > 100000 nM
GI50 [14]: 2930 nM
TGI [14]: 12000 nM
GI50 [15]: 3780 nM
TGI [15]: > 100000 nM
GI50 [16]: 3030 nM
TGI [16]: > 100000 nM
GI50 [18]: 339 nM
TGI [18]: 9950 nM
GI50 [19]: 1390 nM
TGI [19]: 4190 nM
GI50 [20]: 3110 nM
TGI [20]: 13200 nM
GI50 [22]: 2220 nM
TGI [22]: > 100000 nM
GI50 [23]: 3550 nM
TGI [23]: > 100000 nM
GI50 [24]: 2140 nM
TGI [24]: 55000 nM
GI50 [51]: 1260 nM
TGI [51]: 4250 nM
GI50 [25]: 1760 nM
TGI [25]: 4230 nM
GI50 [26]: 1630 nM
TGI [26]: 4800 nM
GI50 [27]: 3030 nM
TGI [27]: > 100000 nM
GI50 [28]: 833 nM
TGI [28]: > 100000 nM
GI50 [29]: 2470 nM
TGI [29]: > 100000 nM
GI50 [30]: 2090 nM
TGI [30]: 5870 nM
GI50 [31]: 2130 nM
TGI [31]: 5150 nM
GI50 [52]: 1090 nM
TGI [52]: 6060 nM
GI50 [32]: 2970 nM
TGI [32]: > 100000 nM
GI50 [53]: 2420 nM
TGI [53]: 5810 nM
GI50 [33]: 3130 nM
TGI [33]: 30800 nM
GI50 [34]: 1770 nM
TGI [34]: > 100000 nM
GI50 [35]: 2640 nM
TGI [35]: > 100000 nM
GI50 [36]: 4180 nM
TGI [36]: > 100000 nM
GI50 [54]: 3330 nM
TGI [54]: > 100000 nM
GI50 [55]: 1230 nM
TGI [55]: 2870 nM
GI50 [37]: 680 nM
TGI [37]: 4420 nM
GI50 [56]: 3300 nM
TGI [56]: 14500 nM
GI50 [40]: 2000 nM
TGI [40]: 5910 nM
GI50 [41]: 2970 nM
TGI [41]: 55000 nM
GI50 [42]: 9210 nM
TGI [42]: > 100000 nM
GI50 [57]: 2920 nM
TGI [57]: 16000 nM
GI50 [44]: 1430 nM
TGI [44]: 12900 nM
GI50 [45]: 2980 nM
TGI [45]: 15100 nM
GI50 [46]: 333 nM
TGI [46]: 1670 nM
GI50 [58]: 348 nM
TGI [58]: > 100000 nM
GI50 [48]: 1210 nM
TGI [48]: > 100000 nM
GI50 [49]: 3270 nM
TGI [49]: 44700 nM
